Columns and labels:
[1] = test system: Staphylococcus Aureus ATCC 6538; assay: Bacterial growth inhibition test in culture broth; type: cell-based; set-up: key to inhibition of S. aureus ATCC 6538 growth / inhibition of S. aureus ATCC 6538: − growth; + inhibition; conditions: for inhibition of S. aureus ATCC 6538: Table 2
Description: Serial dilutions of known titre of the two products SOS-Ag and Katoxyn, the latter containing Ag in the form of metallic silver (silver […]® collodial chemical), have been placed directly in contact with the test microorganism (Staphylococcus Aureus ATCC 6538) for incubation in culture broth under agitation. The effect of the substances on cellular growth has been measured by evaluating the absence of turbidity in the culture medium. The anti bacterial activity has been verified by the seeding of 1 ml of culture broth in an […] medium, with observations at 7, 14, 21, 28 days from the beginning of the experiment (tables 1 and 2).

[2] = test system: Staphylococcus Aureus ATCC 6538; assay: Bacterial growth inhibition test by diffusion in agar (seeded by inclusion, 8 mm wells); type: cell-based
From the text: The inhibition of bacterial growth has been, in this case, evaluated on a confluent bacterial culture of Staphylococcus aureus ATCC 6538 obtained on solid medium, according to the seeding method for inclusion. Serial dilutions of the test products, of known Ag titre, have been deposited inside 8 mm diameter wells formed in the medium in direct contact with the bacteria Staphylococcus aureus ATCC 6538. The antibacterial activity of the products under test have been evaluated, after appropriate incubations, by measuring the halos of inhibition around each well (tables 3 and 4).

S. aureus ATCC 6538 [3] = assay: Diffusion method in agar, cellulose disks of 13 mm; type: cell-based, Staphylococcus aureus; conditions: 72 hours at 37° C.
Description: (§1) The characterisation of the antibacterial activity has been carried out using the method of diffusion in agar, placing the substances in contact with confluent bacterial cultures on solid medium. The experiments have been carried out according to two distinct methods: 1) wetting sterile cellulose disks, 13 mm in diameter with 100 μl of solutions at serial dilutions of the product of known Ag titre. […] 100 μl of the solutions containing the products at known concentrations of Ag are placed on the base of the wells, and the bacteriocidal activity is observed after 72 hours of incubation at 37° C. against a blank constituted of just the solvent used for the solubilisation of the products.

S. aureus ATCC 6538 [4] = assay: Diffusion method in agar, seeded by inclusion, 8 mm wells, 72 h; type: cell-based, Staphylococcus aureus; conditions: 72 hours at 37° C.
Description: as §1

[5] = Solubility of the product; type: physicochemical; conditions: product of example 1
[6] = Stability in solid state and aqueous solution; type: physicochemical; conditions: obtained according to example 3
Pseudomonas aeruginosa = conditions: preservative in cosmetic preparations; cited from earlier work
Candida albicans = conditions: preservative in cosmetic preparations; cited from earlier work
Staphylococcus aureus = conditions: preservative in cosmetic preparations; cited from earlier work

With “silver salts of sucrose-octasulphate [SOS-Ag]” the “inhibition of S. aureus ATCC 6538 growth” value ([1]; Ag titre 1 × 10^−2 M, 7 days) was “+”, the “inhibition of S. aureus ATCC 6538 growth” value ([1]; Ag titre 1 × 10^−2 M, 14 days) was “+” and the “inhibition of S. aureus ATCC 6538 growth” value ([1]; Ag titre 1 × 10^−2 M, 21 days) was “+”. The “inhibition of S. aureus ATCC 6538 growth” value ([1]; Ag titre 1 × 10^−2 M, 28 days) was “+”, the “inhibition of S. aureus ATCC 6538 growth” value ([1]; Ag titre 1 × 10^−3 M, 7 days) was “+” and the “inhibition of S. aureus ATCC 6538 growth” value ([1]; Ag titre 1 × 10^−3 M, 14 days) was “+”. For the same compound, the “inhibition of S. aureus ATCC 6538 growth” value ([1]; Ag titre 1 × 10^−3 M, 21 days) was “+”, the “inhibition of S. aureus ATCC 6538 growth” value ([1]; Ag titre 1 × 10^−3 M, 28 days) was “+” and the “inhibition of S. aureus ATCC 6538 growth” value ([1]; Ag titre 1 × 10^−4 M, 7 days) was “−”. The “inhibition of S. aureus ATCC 6538 growth” value ([1]; Ag titre 1 × 10^−4 M, 14 days) was “−”, the “inhibition of S. aureus ATCC 6538 growth” value ([1]; Ag titre 1 × 10^−4 M, 21 days) was “−” and the “inhibition of S. aureus ATCC 6538 growth” value ([1]; Ag titre 1 × 10^−4 M, 28 days) was “−”. The “inhibition of S. aureus ATCC 6538 growth” value ([1]; Ag titre 1 × 10^−5 M, 7 days) was “−”, the “inhibition of S. aureus ATCC 6538 growth” value ([1]; Ag titre 1 × 10^−5 M, 14 days) was “−” and the “inhibition of S. aureus ATCC 6538 growth” value ([1]; Ag titre 1 × 10^−5 M, 21 days) was “−”. For the same compound, the “inhibition of S. aureus ATCC 6538 growth” value ([1]; Ag titre 1 × 10^−5 M, 28 days) was “−”, the “inhibition of S. aureus ATCC 6538 growth” value ([1]; Ag titre 5 × 10^−4 M, 7 days) was “−” and the “inhibition of S. aureus ATCC 6538 growth” value ([1]; Ag titre 5 × 10^−4 M, 14 days) was “−”. The “inhibition of S. aureus ATCC 6538 growth” value ([1]; Ag titre 5 × 10^−4 M, 21 days) was “−”, the “inhibition of S. aureus ATCC 6538 growth” value ([1]; Ag titre 5 × 10^−4 M, 28 days) was “−” and the “concentration of Ag at which the product has been effective / active” value ([1]; S. aureus ATCC 6538, summary of tables 1-4 (culture broth and agar diffusion)) was 1 mM. The Halo of inhibition ([2]; Ag titre 1 × 10^−3 M, 8 mm wells) was 13 mm, the Halo of inhibition ([2]; Ag titre 1 × 10^−4 M, 8 mm wells) was 0 mm and the Halo of inhibition ([2]; Ag titre 5 × 10^−4 M, 8 mm wells) was 0 mm. The Halo of inhibition (S. aureus ATCC 6538 [3]; Ag titre 10^−2 M) was 15.3 mm, the Halo of inhibition (S. aureus ATCC 6538 [3]; Ag titre 10^−3 M) was 12 mm and the Halo of inhibition (S. aureus ATCC 6538 [3]; Ag titre 10^−4 M) was 0 mm. The Halo of inhibition (S. aureus ATCC 6538 [3]; Ag titre 10^−5 M) was 0 mm, the Halo of inhibition (S. aureus ATCC 6538 [4]; Ag titre 10^−2 M) was 14.5 mm and the Halo of inhibition (S. aureus ATCC 6538 [4]; Ag titre 10^−3 M) was 14 mm. The Halo of inhibition (S. aureus ATCC 6538 [4]; Ag titre 10^−4 M) was 0 mm, the Halo of inhibition (S. aureus ATCC 6538 [4]; Ag titre 10^−5 M) was 0 mm and the “Solubility in organic solvents” value ([5]; organic solvents) was “particularly insoluable”. The Solubility in water ([5]; water) was “very soluble”, the “stability in aqueous solution” value ([6]; aqueous solution) was “good stability” and the “stability in the solid state” value ([6]; solid state) was “good stability”.

For `CC1(C)S[C@@H]2[C@H](NC(=O)[C@H](N)c3ccccc3)C(=O)N2[C@H]1C(=O)O` [ampicillin, reference compound], the “inhibition of S. aureus ATCC 6538 growth” value ([1]; positive control, Table 1, 7 days) was “+”, the “inhibition of S. aureus ATCC 6538 growth” value ([1]; positive control, Table 1, 14 days) was “+” and the “inhibition of S. aureus ATCC 6538 growth” value ([1]; positive control, Table 1, 21 days) was “+”. For the same compound, the “inhibition of S. aureus ATCC 6538 growth” value ([1]; positive control, Table 1, 28 days) was “+”, the “inhibition of S. aureus ATCC 6538” value ([1]; positive control, 7 days) was “+” and the “inhibition of S. aureus ATCC 6538” value ([1]; positive control, 14 days) was “+”. The “inhibition of S. aureus ATCC 6538” value ([1]; positive control, 21 days) was “+”, the “inhibition of S. aureus ATCC 6538” value ([1]; positive control, 28 days) was “+” and the Halo of inhibition ([2]; Concentration 5 I.U./ml, positive control) was 11 mm. The Halo of inhibition ([2]; Concentration 10 I.U./ml, positive control) was 20 mm and the Halo of inhibition ([2]; Concentration 20 I.U./ml, positive control) was 39 mm.

For `[Ag]` [silver], the “concentration of silver showing activity” value (Pseudomonas aeruginosa) is given as 10^−5 M, the “concentration of silver showing activity” value (Candida albicans) is given as 10^−5 M and the “concentration of silver showing activity” value (Staphylococcus aureus) is given as 10^−5 M.

Reference: patent US7183315B2, “Silver salts of sucrose-octasulphate” (Interalia S.R.L., priority 2001, dated 2007)
